Data as given in patent publication US8044036B2 (priority 2005, dated 2011).

Experiments:
Septoria tritici = Septoria tritici test (in vitro)/microtitre plates; type: cell-based; details: application rate 0.3 ppm; 5 days incubation in PDB; 100% = no fungal growth
Pyricularia oryzae = type: cell-based; details: application rate 3 ppm; 5 days incubation in PDB; 100% = no fungal growth

## OC(Cc1ccccc1Cl)(Cn1nc[nH]c1=S)C1(Cl)CC1 (racemic) [prothioconazole, 2-[(2RS)-2-(1-chlorocyclopropyl)-3-(2-chlorophenyl)-2-hydroxy-propyl]-2H-1,2,4-triazole-3(4H)thione]
Septoria tritici
  Efficacy in % found: 21%
Pyricularia oryzae
  Efficacy in % found: 23%

## C=CCNC(=O)c1c([Si](C)(C)C)sc(C)c1C [silthiofam, N-alkyl-4,5-dimethyl-2-(trimethylsilyl)thiophene-3-carboxamide]
Septoria tritici
  Efficacy in % found: 10%
Pyricularia oryzae
  Efficacy in % found: 29%
